# Tested on: CD1 female mouse brain lipidome
# Test: Brain-region lipid levels (HPLC/MS/MS lipidomics) 2 h after single i.p. 3 mg/kg CP 55,940 vs vehicle
# Assay type: in vivo
# Design: N-arachidonoyl phenylalanine level, Mean / N-stearoyl tryptophan level, Mean / N-stearoyl proline level, Mean / N-stearoyl leucine level, Mean / N-stearoyl phenylalanine level, Mean / N-stearoyl serine level, Mean / N-stearoyl methionine level, Mean: unit: moles per gram
# Experimental: The Bloomington Institutional Animal Care and Use Committee of Indiana University reviewed and approved the animal procedures. Female mice from the CD1 strain were utilized to match our study examining THC’s effects on the brain lipidome ([Leishman et al., 2018]). Mice were given a single i.p. injection of either 3 mg/kg CP or 1:1:18 cremophor:ethanol:saline vehicle (please refer to the section “3 mg/kg CP Is Relevant for Synthetic Cannabinoid Abuse and Has Stronger Effects on the Female Mouse Brain Lipidome During Adolescence” for a justification of dose and use of female mice). Three different age groups were given injections: PND 35 and PND 50 adolescents, and adult mice (PND 113). At least eight mice in each age group received CP and at least eight received vehicle. Matching the THC study time course ([Leishman et al., 2018]), mice were sacrificed via rapid decapitation 2 h after injection. Brains were immediately removed and flash-frozen in liquid nitrogen, and then stored at -80°C until dissections were performed. Brains were dissected on an ice-cold dissection plate into the following regions: STR, HIPP, CER, THAL, CTX, HYP, MID, and STEM. These abbreviations for these brain areas will be used exclusively when discussing the results generated by these specific dissections. Each dissected area was immediately placed in liquid nitrogen and then stored at -80°C until used for lipid extraction.
# Tissue extracts were performed as previously described ([Bradshaw et al., 2006]; [Stuart et al., 2013]; [Raboune et al., 2014]; [Leishman et al., 2016a],[b], [2017], [2018]). First, samples were shock frozen in liquid nitrogen, weighed, and transferred to a centrifuge tube. The mass of the largest sample was multiplied by 50 to determine how many milliliters of HPLC-grade methanol (Fisher, Fair Lawn, NJ, United States) to add. Then, samples were spiked with 500 pmol deuterium-labeled NAGly (d8NAGly; Cayman Chemical, Ann Arbor, MI, United States). Samples were placed on ice in darkness for 2 h then individually homogenized and centrifuged at 19,000 × g for 20 min at 20°C. Supernatants were diluted with HPLC water (purified in house) to make a solution of 75% water, 25% supernatant. Lipids were partially purified on C18 solid phase extraction columns (Agilent, Palo Alto, CA, United States). A series of four elutions with 1.5 mL of 60%, 75%, 85%, and 100% methanol were collected ([Stuart et al., 2013]; [Leishman et al., 2016a],[b], [2018]).
# As previously described ([Bradshaw et al., 2006]; [Tan et al., 2006]; [Smoum et al., 2010]; [Stuart et al., 2013]; [Tortoriello et al., 2013]; [Raboune et al., 2014]; [Leishman et al., 2016a],[b], [2017], [2018]), samples were analyzed using an Applied Biosystems API 3000 triple quadrupole mass spectrometer with electrospray ionization (Foster City, CA, United States). Using an Agilent XDB-C18 reversed phase analytical column and optimized mobile phase gradients, 20 μL from each elution were chromatographed. Two Shimadzu 10ADvp pumps (Columbia, MD, United States) provided the pressure for gradient elution. Mobile phase A: 20% methanol, 80% water (v/v) and 1 mM ammonium acetate (Sigma, St. Louis, MO, United States). Mobile phase B: 100% methanol, 1 mM ammonium acetate. Every method run began with 0% mobile phase B, reached 100% mobile phase B flowing at 0.2 mL/min, and gradually returned to 0% mobile phase B.
# This screening library will be referred to as the lipidome when discussing data from this study. HPLC/MS/MS data were analyzed using Analyst software (Applied Biosystems) ([Bradshaw et al., 2006]; [Tan et al., 2006]; [Stuart et al., 2013]; [Tortoriello et al., 2013]; [Raboune et al., 2014]; [Leishman et al., 2016a],[b], [2017], [2018]). Chromatograms (Supplementary Figure 3) were generated by determining the retention time of analytes from the analytical column with a [M-1] or [M+1] parent peak and a fragmentation peak corresponding to the programmed values. […]
# [1] = midbrain, PND 35 WT adolescent female mice, 3 mg/kg
# [2] = striatum, PND 50, 3mg/kg CP 55,940 vs Veh
# [3] = striatum, PND 50 female mice, 3mg/kg CP 55,940, mean
smiles,measurement,setting,value
"CCCCCCC(C)(C)c1ccc([C@@H]2C[C@H](O)CC[C@H]2CCCO)c(O)c1 [CP 55,940]","N-stearoyl GABA level, Mean",[1],7.82E-12
same,"N-stearoyl alanine level, Mean",[1],9.99E-12
same,"N-stearoyl ethanolamine level, Mean",[1],1.75E-11
same,"N-stearoyl glycine level, Mean",[1],2.16E-11
same,"N-stearoyl leucine level, Mean",[1],1.07E-12
same,"N-stearoyl methionine level, Mean",[1],2.71E-12
same,"N-stearoyl phenylalanine level, Mean",[1],2.34E-12
same,"N-stearoyl proline level, Mean",[1],3.86E-13
same,"N-stearoyl serine level, Mean",[1],3.54E-11
same,"N-stearoyl tryptophan level, Mean",[1],7E-13
same,"N-stearoyl tyrosine level, Mean",[1],2.3E-13
same,"Oleic acid level, Mean",[1],1.55E-09
same,"PGE2 level, Mean",[1],5.98E-10
same,"PhosphoLEA level, Mean",[1],1.57E-11
same,"2-arachidonoyl glycerol, Direction (relative to Veh)",[2],↓
same,"2-arachidonoyl glycerol, Magnitude (x Veh level)",[2],0.86 x Veh level
same,2-linoleoyl glycerol Direction (relative to Veh),[2],↓
same,2-linoleoyl glycerol Magnitude (x Veh level),[2],0.77 x Veh level
same,"Arachidonic acid, Direction (relative to Veh)",[2],↓
same,"Arachidonic acid, Magnitude (x Veh level)",[2],0.81 x Veh level
same,"Linoleic acid, Direction (relative to Veh)",[2],↓
same,"Linoleic acid, Magnitude (x Veh level)",[2],0.78 x Veh level
same,N-arachidonoyl GABA Direction (relative to Veh),[2],↓
same,N-arachidonoyl GABA Magnitude (x Veh level),[2],0.71 x Veh level
same,N-arachidonoyl glycine Direction (relative to Veh),[2],↓
same,N-arachidonoyl glycine Magnitude (x Veh level),[2],0.65 x Veh level
same,"N-arachidonoyl phenylalanine, Direction (relative to Veh)",[2],↓
same,"N-arachidonoyl phenylalanine, Magnitude (x Veh level)",[2],0.78 x Veh level
same,N-arachidonoyl taurine Direction (relative to Veh),[2],↓
same,N-arachidonoyl taurine Magnitude (x Veh level),[2],0.91 x Veh level
same,N-docosahexaenoyl GABA Direction (relative to Veh),[2],↓
same,N-docosahexaenoyl GABA Magnitude (x Veh level),[2],0.81 x Veh level
same,N-docosahexaenoyl glycine Direction (relative to Veh),[2],↓
same,N-docosahexaenoyl glycine Magnitude (x Veh level),[2],0.51 x Veh level
same,"N-palmitoyl leucine, Direction (relative to Veh)",[2],↑
same,"N-palmitoyl leucine, Magnitude (x Veh level)",[2],1.33 x Veh level
same,N-palmitoyl tyrosine Magnitude (x Veh level),[2],1.35 x Veh level
same,"N-palmitoyl tyrosine, Direction (relative to Veh)",[2],↑
same,N-palmitoyl valine Direction (relative to Veh),[2],↑
same,N-palmitoyl valine Magnitude (x Veh level),[2],1.72 x Veh level
same,"Oleic acid, Direction (relative to Veh)",[2],↓
same,"Oleic acid, Magnitude (x Veh level)",[2],0.79 x Veh level
same,PGF2α Direction (relative to Veh),[2],↑
same,PGF2α Magnitude (x Veh level),[2],1.16 x Veh level
same,2-arachidonoyl-sn-glycerol level,[3],1.35E-10
same,2-linoleoyl-sn-glycerol level,[3],8.22E-11
same,2-oleoyl-sn-glycerol level,[3],9.26E-10
same,2-palmitoyl-sn-glycerol level,[3],1.09E-09
same,11-OH-THC level,[3],BDL
same,11-nor-9-carboxyTHC level,[3],BDL
same,Arachidonic acid level,[3],2.35E-10
same,Cannabidiol level,[3],BDL
same,Linoleic acid level,[3],1.59E-10
same,N-arachidonoyl GABA level,[3],4.29E-12
same,N-arachidonoyl dopamine level,[3],BDL
same,N-arachidonoyl ethanolamine level,[3],2.93E-11
same,N-arachidonoyl glycine level,[3],5.51E-13
same,N-arachidonoyl phenylalanine level,[3],3.83E-13
same,N-arachidonoyl proline level,[3],BDL
same,N-arachidonoyl taurine level,[3],2.53E-11
same,N-arachidonoyl tryptophan level,[3],BDL
same,N-docosahexaenoyl GABA level,[3],4.96E-13
same,N-docosahexaenoyl ethanolamine level,[3],3.09E-11
same,N-docosahexaenoyl glycine level,[3],1.15E-13
same,N-docosahexaenoyl leucine level,[3],1.19E-13
same,N-docosahexaenoyl methionine level,[3],BDL
same,N-docosahexaenoyl phenylalanine level,[3],4.38E-13
same,N-docosahexaenoyl proline level,[3],BDL
same,N-docosahexaenoyl tryptophan level,[3],BDL
same,N-docosahexaenoyl valine level,[3],BDL
same,N-linoleoyl alanine level,[3],1.36E-13
same,N-linoleoyl ethanolamine level,[3],5.34E-11
same,N-linoleoyl glycine level,[3],6.89E-14
same,N-linoleoyl leucine level,[3],4.43E-14
same,N-linoleoyl proline level,[3],BDL
same,N-linoleoyl serine level,[3],1.09E-10
same,N-linoleoyl tryptophan level,[3],BDL
same,N-linoleoyl tyrosine level,[3],BDL
same,N-nervonoyl valine level,[3],BDL
same,N-oleoyl GABA level,[3],1.25E-12
same,N-oleoyl alanine level,[3],1.2E-12
same,N-oleoyl dopamine level,[3],BDL
same,N-oleoyl ethanolamine level,[3],6.94E-11
same,N-oleoyl glycine level,[3],1.27E-12
same,N-oleoyl leucine level,[3],4.16E-13
same,N-oleoyl methionine level,[3],3.74E-13
same,N-oleoyl phenylalanine level,[3],5.89E-13
same,N-oleoyl proline level,[3],BDL
same,N-oleoyl serine level,[3],2.17E-10
same,N-oleoyl tryptophan level,[3],BDL
same,N-oleoyl tyrosine level,[3],1.31E-13
same,N-palmitoyl GABA level,[3],3.11E-12
same,N-palmitoyl alanine level,[3],4.63E-12
same,N-palmitoyl ethanolamine level,[3],6.26E-11
same,N-palmitoyl glycine level,[3],5.26E-12
same,N-palmitoyl leucine level,[3],1.06E-12
same,N-palmitoyl methionine level,[3],1.12E-12
same,N-palmitoyl phenylalanine level,[3],9.78E-13
same,N-palmitoyl proline level,[3],BDL
same,N-palmitoyl serine level,[3],2.18E-11
same,N-palmitoyl tryptophan level,[3],BDL
same,N-palmitoyl tyrosine level,[3],4.79E-13
